Laboratory results from US20150223465A1, “COMPOSITION CONTAINING 3-CYCLOPROPYL-1-ENYL-PROPANOIC ACID SALTS AND A CARRIER” (Yissum Research Development Company of the Hebrew …, priority 2012, published 2015).

Assays:
Format in all cases: in vivo, carnation (Dianthus caryophyllus)
cut carnation flowers [1] = test: Delaying senescence of cut carnation flowers: loading 24 h in CPAS solution, then 2 ppm ethylene for 24 h, visual inspection/photographs; design: key to Results (ethylene antagonizing effect of CPAS by visual inspection): The result “−” means no ethylene antagonizing effect by visual inspection.; The result “+++” means high ethylene antagonizing effect by visual inspection.; The result “++++” means very high ethylene antagonizing effect by visual inspection
Description: (§1) The ethylene antagonizing effect of composition described herein can be assessed by its effect of delaying senescence of cut plants, such as cut flowers. Some embodiments of the present invention are based on the use of the composition described herein to treat cut flowers for delaying senescence of the cut flowers.
(§2) Cut Flowers: Unless otherwise noted, carnation flowers grown in a greenhouse were harvested at the beginning of flower opening stage, early in the morning, and were immediately brought to the laboratory. The flowers were either processed immediately or stored in a cold room (4° C.) for 1 to 5 days as required.
(§3) Treatment Procedure: The flower stems were cut under tap water to the desired lengths (15 cm-55 cm). Four flowers for each treatment group (of two flowers per each groups) were loaded in a 20 mL aqueous treatment solution (or “loading solution”) for 24 hours. The treatment solution was placed in a 35 mL tube. The loading solutions of CPAS in buffers were prepared in distilled water, as described hereinafter. At the end of CPAS loading, the flowers were transferred to tap water for 1 to 4 days until the cut flowers open. The cut flowers were then exposed to 2 ppm ethylene for 24 hours. Control cut flowers were loaded in a control solution without CPAS in the same manner as the treated cut flowers, and were thereafter exposed to ethylene or air. At the end of ethylene exposure, the flowers were ventilated and left in tap water under controlled conditions (a temperature of 22° C., a relative humidity of 80%, and continuous fluorescent light) for additional 5 days for senescence assessment.

cut carnation flowers [2] = test: Flower diameter of cut carnations after CPAS loading and ethylene exposure
Experimental: as §3
Flower Diameter: In some experiments, flower diameter was determined according to the method described in Goren et al., Plant Growth Regulation 65:327-334 (2011), to assess flower quality.

carnation flowers = test: Spraying cut carnations with CPAS solution, then 2 ppm ethylene for 24 h
Experimental: Carnation flowers were harvested at the full bloom stage, when the outer petals deflected at right angles to the stem. The flowers were selected for uniformity in terms of flower diameter and placed in tap water. […] The deionized water was used to avoid salt precipitation due to the existence of calcium in tap water. The treatment solution contained a surfactant, Triton-X 100™ (0.05%). Twenty-four hours after the spraying application, the flowers were treated with 2 ppm ethylene for 24 hours. During treatment and during observation of vase-life, the flowers were kept at 22° C. Each treatment was carried out in three replicates, 3 flowers in each replicate.
Carnation flowers were harvested at the full bloom stage, when the outer petals deflected at right angles to the stem. The flowers were selected for uniformity in terms of flower diameter and placed in tap water. The flowers were then sprayed with various concentrations of CPAS (sodium salt) ranging from 15 to 60 ppm dissolved in NaHCO3 (pH 8.2, 20 and 40 mM) in tap water. The treatment solution contained a surfactant, Kinetic® (0.05%). Twenty-four hours after the CPAS spraying application, the flowers were treated with 2 ppm ethylene for 24 hours. During treatment and during observation of vase-life, the flowers were kept 22° C. Each treatment was carried out in three replicates, 3 flowers in each replicate.

cut carnation flowers [3] = test: Delaying senescence of cut carnation flowers: loading 24 h in CPAS solution, then 2 ppm ethylene for 24 h, visual inspection/photographs; design: key: The result “−” means no ethylene antagonizing effect by visual inspection.; The result “+++” means high ethylene antagonizing effect by visual inspection.; The result “++++” means very high ethylene antagonizing effect by visual inspection; details: CPAS sodium salt 20-120 ppm, 36-55 cm stems
Description: as §1, §2, §3

cut carnation flowers [4] = test: as above; design: key: The result “−” means no ethylene antagonizing effect by visual inspection.; The result “+” means low ethylene antagonizing effect by visual inspection.; The result “++” means medium ethylene antagonizing effect by visual inspection.; The result “+++” means high ethylene antagonizing effect by visual inspection.; The result “++++” means very high ethylene antagonizing effect by visual inspection; details: CPAS sodium salt 20-120 ppm, 36-55 cm stems
Description: as §1, §2
Treatment Procedure: The flower stems were cut under tap water to the desired lengths (15 cm-55 cm). Four flowers for each treatment group (of two flowers per each groups) were loaded in a 20 mL aqueous treatment solution (or “loading solution”) for 24 hours. The treatment solution was placed in a 35 mL tube. The loading solutions of CPAS in buffers were prepared in distilled water, as described hereinafter. At the end of CPAS loading, the flowers were transferred to tap water for 1 to 4 days until the cut flowers open. The cut flowers were then exposed to 2 ppm ethylene for 24 hours. Control cut flowers were loaded in a control solution without CPAS in the same manner as the treated cut flowers, and were thereafter exposed to ethylene or air. […]

`O=C([O-])CCC1=CC1.[Na+]` [CPAS, 3-cyclopropyl-1-enyl-propanoic acid salt] was tested, and the “senescence of cut flowers” value (cut carnation flowers [1]; 36 cm stems, 60 and 120 ppm CPAS in Na-phosphate buffer (20 mM) containing NaHCO3 (60 mM), pH 7.2) was “delayed senescence”, the flower senescence (cut carnation flowers [1]; 60 or 120 ppm CPAS in 20 mM Na2CO3/NaHCO3 buffer pH 9.4, 36 cm stems) was “delayed flower senescence” and the flower senescence (cut carnation flowers [1]; 120 ppm CPAS in 20 mM NaHCO3 pH 8.2, 36 cm stems) was “delayed flower senescence”. The “Results (ethylene antagonizing effect of CPAS by visual inspection)” value (cut carnation flowers [1]; CPAS sodium salt 20-120 ppm in Na2CO3/NaHCO3 buffer 20 mM pH 9.2-9.4) was “++++”, the “Results (ethylene antagonizing effect of CPAS by visual inspection)” value (cut carnation flowers [1]; CPAS sodium salt 20-120 ppm in Na-Phosphate buffer 20 mM pH 7.6) was “−” and the “Results (ethylene antagonizing effect of CPAS by visual inspection)” value (cut carnation flowers [1]; CPAS sodium salt 20-120 ppm in NaHCO3 20 mM pH 8.2) was “+++”. For the same molecule, the “senescence of cut flowers” value (cut carnation flowers [1]; CPAS sodium salt 20-160 ppm in Glycine/NaOH buffer 20 mM pH 8.8, 36 cm stems, loading 24 h) was “no effect”, the “senescence of cut flowers” value (cut carnation flowers [1]; CPAS sodium salt 20-160 ppm in H3BO3/NaOH buffer 20 mM pH 9.2, 36 cm stems, loading 24 h) was “no effect” and the “senescence of cut flowers” value (cut carnation flowers [1]; CPAS sodium salt 20-160 ppm in Na2CO3/NaHCO3 buffer 20 mM pH 9.4, 36 cm stems, loading 24 h) was “showed delayed senescence”. The “senescence of cut flowers” value (cut carnation flowers [1]; stem length 15 cm, 40, 60 and 120 ppm CPAS in 20 mM NaHCO3 pH 8.2) was “showed delayed senescence”, the “senescence of cut flowers” value (cut carnation flowers [1]; stem length 36 cm, 120 mM CPAS (so in the source) in 20 mM NaHCO3 pH 8.2) was “showed delayed senescence” and the “senescence of cut flowers” value (cut carnation flowers [1]; stem length 55 cm, 120 mM CPAS (so in the source) in 20 mM NaHCO3 pH 8.2) was “No delayed senescence”. For the same molecule, the “senescence of cut flowers” value (cut carnation flowers [1]; stem length 55 cm, 60 or 120 ppm CPAS in 60 mM Na2CO3/NaHCO3 buffer pH 9.4) was “showed delayed senescence”, the “senescence of cut flowers” value (cut carnation flowers [1]; stem length 55 cm, 120 ppm CPAS in 60 mM NaHCO3 pH 8.2) was “showed delayed senescence” and the “senescence of cut flowers as measured by flower diameter” value (from here on “senescence of cut flowers as measured”) (cut carnation flowers [2]; 55 cm stems, 100, 120 or 140 ppm CPAS in Na-phosphate or Na-phosphate/citrate buffer containing NaHCO3) was “delayed senescence was generally observed”. The “effect of NaHCO3 concentration (60 or 80 mM) on treatment results” value (cut carnation flowers [2]; 55 cm stems, CPAS in Na-phosphate buffer (20 mM) containing NaHCO3) was “did not significantly affect the treatment results”, the “effect of NaHCO3 concentration (60 or 80 mM) on treatment results” value (cut carnation flowers [2]; 55 cm stems, CPAS in Na-phosphate/citrate buffer (20 mM) containing NaHCO3) was 80 mM NaHCO3 yielding better treatment results than 60 mM NaHCO3 and the “senescence of cut flowers as measured” value (cut carnation flowers [2]; stem length 55 cm, 80 or 120 ppm CPAS in 40, 60 or 80 mM Na2CO3/NaHCO3 buffer) was “delayed senescence”. The “senescence of cut flowers as measured” value (cut carnation flowers [2]; stem length 55 cm, 80 ppm CPAS in 80 mM NaHCO3) was “delayed senescence”, the “ethylene antagonizing effect compared among NaHCO3 concentrations” value (cut carnation flowers [2]; stem length 55 cm, 120 ppm CPAS in 60 mM NaHCO3 versus 40 and 80 mM) was “highest ethylene antagonizing effect” and the “senescence of cut flowers as measured” value (cut carnation flowers [2]; stem length 55 cm, 120 ppm CPAS in 40, 60 or 80 mM NaHCO3) was “delayed senescence”. The “effect on ethylene-induced flower senescence” value (carnation flowers; 15 ppm CPAS in NaHCO3 pH 8.2 (20 and 40 mM), Kinetic 0.05%, tap water) was “little effect”, the “effect on ethylene-induced flower senescence” value (carnation flowers; 40 ppm CPAS in Na2CO3/NaHCO3 buffer pH 9.2 below 60 mM, Triton-X 100 0.05%, deionized water) was “little effect” and the “effect on ethylene-induced flower senescence” value (carnation flowers; 80 and 120 ppm CPAS in Na2CO3/NaHCO3 buffer pH 9.2, 40 and 60 mM, Triton-X 100 0.05%) was “significant effect”. For the same molecule, the “delay of flower senescence, tap water versus DI water” value (carnation flowers; CPAS in NaHCO3 (40 mM) dissolved in tap water compared with DI water) was “more efficiently”, the “effect on ethylene-induced flower senescence” value (carnation flowers; higher CPAS concentrations (up to 60 ppm) in NaHCO3 pH 8.2 (20 and 40 mM), Kinetic 0.05%, tap water) was “significantly delayed flower senescence” and the “Results (efficacy of CPAS, ethylene antagonizing effect by visual inspection)” value (cut carnation flowers [3]; Glycine/NaOH buffer 20 mM pH 8.8) was “−”. The “Results (efficacy of CPAS, ethylene antagonizing effect by visual inspection)” value (cut carnation flowers [3]; H3BO3/NaOH buffer 20 mM pH 9.2) was “−”, the “Results (efficacy of CPAS, ethylene antagonizing effect by visual inspection)” value (cut carnation flowers [3]; HCl-TRIS buffer 20 mM pH 8.4) was “−” and the “Results (efficacy of CPAS, ethylene antagonizing effect by visual inspection)” value (cut carnation flowers [3]; Isopropylamine 500-1000 ppm pH 11.0) was “−”. For the same molecule, the “Results (efficacy of CPAS, ethylene antagonizing effect by visual inspection)” value (cut carnation flowers [3]; K-Citrate/Citric Ac. buffer 20 mM pH 4.65) was “−”, the “Results (efficacy of CPAS, ethylene antagonizing effect by visual inspection)” value (cut carnation flowers [3]; K-Citrate/Citric Ac. buffer 20 mM pH 5.0 with 2,3-butanedione (500 ppm)) was “−” and the “Results (efficacy of CPAS, ethylene antagonizing effect by visual inspection)” value (cut carnation flowers [3]; K-Citrate/Citric Ac. buffer 20 mM pH 5.0 with EMK (5%)) was “−”. The “Results (efficacy of CPAS, ethylene antagonizing effect by visual inspection)” value (cut carnation flowers [3]; K-Citrate/Citric Ac. buffer 20 mM pH 5.0 with PVP (0.5%)) was “−”, the “Results (efficacy of CPAS, ethylene antagonizing effect by visual inspection)” value (cut carnation flowers [3]; Na2B4O7/NaOH buffer 20 mM pH 9.4) was “−” and the “Results (efficacy of CPAS, ethylene antagonizing effect by visual inspection)” value (cut carnation flowers [3]; Na2CO3/NaHCO3 buffer 40 mM pH 9.2-9.4 with Chloramphenicol 150 μM) was “++++”. The “Results (efficacy of CPAS, ethylene antagonizing effect by visual inspection)” value (cut carnation flowers [3]; Na2CO3/NaHCO3 buffer 20-80 mM pH 9.2-9.4) was “++++”, the “Results (efficacy of CPAS, ethylene antagonizing effect by visual inspection)” value (cut carnation flowers [3]; Na-Phosphate buffer 20 mM pH 6.0 + NaHCO3 60-80 mM, pH 7.4) was “+++” and the “Results (efficacy of CPAS, ethylene antagonizing effect by visual inspection)” value (cut carnation flowers [3]; Na-Phosphate buffer 20 mM pH 7.6) was “−”. For the same molecule, the “Results (efficacy of CPAS, ethylene antagonizing effect by visual inspection)” value (cut carnation flowers [3]; Na-Phosphate/Citrate buffer 20 mM pH 6.0 + NaHCO3 60-80 mM, pH 7.2) was “+++”, the “Results (efficacy of CPAS, ethylene antagonizing effect by visual inspection)” value (cut carnation flowers [3]; NaHCO3 40 mM pH 8.2 with Chloramphenicol 50 μM) was “+++” and the “Results (efficacy of CPAS, ethylene antagonizing effect by visual inspection)” value (cut carnation flowers [3]; NaHCO3 20-80 mM pH 8.2) was “+++”. For the same molecule, the “Results (efficacy of CPAS, ethylene antagonizing effect by visual inspection)” value (cut carnation flowers [4]; EDTA 500-1000 ppm) was “+” and the “Results (efficacy of CPAS, ethylene antagonizing effect by visual inspection)” value (cut carnation flowers [4]; KHCO3 20-80 mM pH 8.2) was “++”.
